Measurements from ChEMBL document CHEMBL5465560, “Selectivity Literature for EUbOPEN Chemogenomic Library” (2024).

Tests used:
[1] = target: Ribosomal protein S6 kinase beta-1 (Homo sapiens, UniProt P23443); experiment: Selectivity interaction (Kinase panel (KiNativ target engagement assay in Jurkat cells)) EUB0001635a RPS6KB1; format: cell-based; conditions: at 1 µM
[2] = target: T1, Tyrosine-protein kinase Mer (Homo sapiens) (UniProt Q12866); experiment: Selectivity interaction (KinomeScan (DiscoverX)) EUB0000607a MERTK; conditions: at 10 µM
T1 sequence (whole entry): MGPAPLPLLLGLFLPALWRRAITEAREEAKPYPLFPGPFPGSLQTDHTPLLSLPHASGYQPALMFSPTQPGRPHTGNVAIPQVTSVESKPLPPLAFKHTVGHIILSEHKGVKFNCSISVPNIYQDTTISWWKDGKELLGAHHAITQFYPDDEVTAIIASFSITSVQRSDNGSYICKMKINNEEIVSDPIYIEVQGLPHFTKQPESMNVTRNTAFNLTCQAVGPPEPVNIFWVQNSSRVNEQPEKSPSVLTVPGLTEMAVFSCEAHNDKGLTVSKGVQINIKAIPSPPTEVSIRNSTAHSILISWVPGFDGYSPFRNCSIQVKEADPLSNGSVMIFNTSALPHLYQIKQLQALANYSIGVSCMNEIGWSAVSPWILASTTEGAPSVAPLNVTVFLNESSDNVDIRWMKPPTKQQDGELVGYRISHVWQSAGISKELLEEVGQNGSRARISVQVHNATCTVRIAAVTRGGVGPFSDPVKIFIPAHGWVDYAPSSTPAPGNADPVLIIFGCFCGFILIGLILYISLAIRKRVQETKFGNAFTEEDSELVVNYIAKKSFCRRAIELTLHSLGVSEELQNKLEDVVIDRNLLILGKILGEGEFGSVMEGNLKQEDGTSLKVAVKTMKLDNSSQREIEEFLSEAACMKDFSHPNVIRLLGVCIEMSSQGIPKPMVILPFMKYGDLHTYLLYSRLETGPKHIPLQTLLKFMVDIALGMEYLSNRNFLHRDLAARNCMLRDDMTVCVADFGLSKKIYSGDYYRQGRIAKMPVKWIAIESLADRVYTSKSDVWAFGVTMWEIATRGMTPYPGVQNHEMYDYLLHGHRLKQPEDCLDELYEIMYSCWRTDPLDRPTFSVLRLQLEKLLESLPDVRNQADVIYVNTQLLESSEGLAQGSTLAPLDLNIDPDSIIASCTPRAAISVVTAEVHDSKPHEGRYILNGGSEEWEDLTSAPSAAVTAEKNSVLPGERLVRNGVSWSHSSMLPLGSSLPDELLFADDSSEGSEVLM

[3] = target: T2, Tyrosine-protein kinase ITK/TSK (Homo sapiens) (UniProt Q08881); experiment: Selectivity interaction (KinomeScan (DiscoverX)) EUB0000618a ITK; conditions: at 10 µM
T2 sequence (whole entry): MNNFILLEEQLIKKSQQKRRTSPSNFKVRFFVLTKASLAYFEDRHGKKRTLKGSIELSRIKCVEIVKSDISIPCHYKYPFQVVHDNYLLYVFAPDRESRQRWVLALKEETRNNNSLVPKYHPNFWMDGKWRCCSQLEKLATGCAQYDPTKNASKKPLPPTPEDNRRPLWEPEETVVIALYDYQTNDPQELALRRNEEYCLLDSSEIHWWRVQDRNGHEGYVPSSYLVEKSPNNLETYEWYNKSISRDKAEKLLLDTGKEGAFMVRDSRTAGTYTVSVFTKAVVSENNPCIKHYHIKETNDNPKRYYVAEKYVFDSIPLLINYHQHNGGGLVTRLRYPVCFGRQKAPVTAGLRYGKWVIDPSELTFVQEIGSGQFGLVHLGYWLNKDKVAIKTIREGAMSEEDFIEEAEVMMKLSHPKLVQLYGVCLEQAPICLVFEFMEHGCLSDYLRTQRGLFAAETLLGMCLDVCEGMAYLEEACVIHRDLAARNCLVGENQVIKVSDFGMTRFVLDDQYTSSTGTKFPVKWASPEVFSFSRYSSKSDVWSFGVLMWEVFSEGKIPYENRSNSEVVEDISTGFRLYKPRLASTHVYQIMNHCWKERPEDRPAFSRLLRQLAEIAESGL

[4] = target: T3, Mitogen-activated protein kinase kinase kinase kinase 3 (Homo sapiens) (UniProt Q8IVH8); experiment: Selectivity interaction (KinomeScan (DiscoverX)) EUB0000655a MAP4K3; conditions: at 10 µM
T3 sequence (whole entry): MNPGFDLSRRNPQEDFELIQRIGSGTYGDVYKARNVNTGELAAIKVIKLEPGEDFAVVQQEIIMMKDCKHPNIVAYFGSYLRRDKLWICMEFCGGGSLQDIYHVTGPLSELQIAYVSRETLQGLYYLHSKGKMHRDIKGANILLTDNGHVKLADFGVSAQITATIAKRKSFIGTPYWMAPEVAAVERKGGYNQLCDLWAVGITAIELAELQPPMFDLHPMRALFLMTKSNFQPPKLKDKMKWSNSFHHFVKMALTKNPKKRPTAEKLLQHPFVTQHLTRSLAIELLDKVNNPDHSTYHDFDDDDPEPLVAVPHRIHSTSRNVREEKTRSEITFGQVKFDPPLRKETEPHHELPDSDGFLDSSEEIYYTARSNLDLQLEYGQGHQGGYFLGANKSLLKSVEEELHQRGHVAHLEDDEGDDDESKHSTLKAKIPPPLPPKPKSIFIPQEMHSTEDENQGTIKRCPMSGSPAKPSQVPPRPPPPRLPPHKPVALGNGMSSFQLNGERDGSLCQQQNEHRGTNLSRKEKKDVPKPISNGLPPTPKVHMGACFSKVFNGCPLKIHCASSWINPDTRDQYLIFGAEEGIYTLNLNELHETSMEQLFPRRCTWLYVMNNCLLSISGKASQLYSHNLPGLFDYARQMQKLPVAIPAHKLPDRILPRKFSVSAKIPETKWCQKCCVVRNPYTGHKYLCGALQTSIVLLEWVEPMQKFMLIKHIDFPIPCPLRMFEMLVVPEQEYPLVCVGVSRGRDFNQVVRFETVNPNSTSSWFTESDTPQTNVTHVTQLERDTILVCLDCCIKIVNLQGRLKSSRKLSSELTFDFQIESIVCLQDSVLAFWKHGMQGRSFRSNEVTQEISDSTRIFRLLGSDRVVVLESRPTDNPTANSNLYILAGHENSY

[5] = target: Non-receptor tyrosine-protein kinase TYK2 (Homo sapiens, UniProt P29597); experiment: Selectivity interaction (Ambit KINOMEscan and KiNATiv profiling in Jurkat cells) EUB0000090b TYK2; format: cell-based; conditions: at 1 µM
Chain of Non-receptor tyrosine-protein kinase TYK2 (P29597 whole entry): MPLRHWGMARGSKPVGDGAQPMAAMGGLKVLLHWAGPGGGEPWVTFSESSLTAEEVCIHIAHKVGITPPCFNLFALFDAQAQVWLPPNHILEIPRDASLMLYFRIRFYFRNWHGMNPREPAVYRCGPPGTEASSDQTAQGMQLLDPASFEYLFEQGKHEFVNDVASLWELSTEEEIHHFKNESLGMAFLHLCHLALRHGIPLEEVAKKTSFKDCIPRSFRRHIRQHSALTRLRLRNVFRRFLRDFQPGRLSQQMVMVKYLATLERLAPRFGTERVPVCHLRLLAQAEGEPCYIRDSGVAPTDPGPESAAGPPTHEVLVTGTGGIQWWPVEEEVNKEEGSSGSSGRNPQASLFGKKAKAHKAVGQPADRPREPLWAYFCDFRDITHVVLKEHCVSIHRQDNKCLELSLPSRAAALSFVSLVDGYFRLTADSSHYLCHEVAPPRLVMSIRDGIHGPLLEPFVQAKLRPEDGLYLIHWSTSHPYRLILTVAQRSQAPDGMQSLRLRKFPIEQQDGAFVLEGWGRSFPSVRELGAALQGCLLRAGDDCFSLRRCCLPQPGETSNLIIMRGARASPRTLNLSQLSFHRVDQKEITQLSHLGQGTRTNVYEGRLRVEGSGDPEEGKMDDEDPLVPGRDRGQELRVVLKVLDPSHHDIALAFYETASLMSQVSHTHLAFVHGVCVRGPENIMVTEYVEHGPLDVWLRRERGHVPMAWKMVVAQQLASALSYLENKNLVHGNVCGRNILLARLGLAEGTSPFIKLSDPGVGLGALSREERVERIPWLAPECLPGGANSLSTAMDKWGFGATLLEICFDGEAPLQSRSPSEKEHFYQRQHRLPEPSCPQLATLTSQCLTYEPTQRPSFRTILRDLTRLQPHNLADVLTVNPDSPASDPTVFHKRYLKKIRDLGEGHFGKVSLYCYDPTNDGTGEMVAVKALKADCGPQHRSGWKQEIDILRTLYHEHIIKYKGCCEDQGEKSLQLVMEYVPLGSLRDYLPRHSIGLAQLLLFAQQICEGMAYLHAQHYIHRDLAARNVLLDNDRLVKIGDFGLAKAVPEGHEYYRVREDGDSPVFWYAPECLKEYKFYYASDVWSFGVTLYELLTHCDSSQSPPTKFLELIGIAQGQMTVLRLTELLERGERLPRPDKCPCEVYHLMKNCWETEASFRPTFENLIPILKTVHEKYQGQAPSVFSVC

Chain of Ribosomal protein S6 kinase beta-1 (P23443 whole entry, looked up): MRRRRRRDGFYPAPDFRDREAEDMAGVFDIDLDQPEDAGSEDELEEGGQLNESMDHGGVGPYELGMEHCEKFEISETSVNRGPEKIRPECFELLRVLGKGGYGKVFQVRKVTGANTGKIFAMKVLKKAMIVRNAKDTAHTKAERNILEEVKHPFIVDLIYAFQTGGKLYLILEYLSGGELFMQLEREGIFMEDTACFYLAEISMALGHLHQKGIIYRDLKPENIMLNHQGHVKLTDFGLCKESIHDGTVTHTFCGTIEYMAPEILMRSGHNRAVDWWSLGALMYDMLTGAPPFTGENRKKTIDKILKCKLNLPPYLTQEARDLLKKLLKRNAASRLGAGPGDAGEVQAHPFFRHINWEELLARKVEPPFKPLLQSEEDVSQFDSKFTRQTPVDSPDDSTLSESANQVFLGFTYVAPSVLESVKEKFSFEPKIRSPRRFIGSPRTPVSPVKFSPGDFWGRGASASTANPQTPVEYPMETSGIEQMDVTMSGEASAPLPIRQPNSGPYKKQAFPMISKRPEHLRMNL

C=CC(=O)Nc1ccc(C(=O)Nc2[nH]nc3c2CN(C(=O)N[C@H](CN(C)C)c2ccccc2)C3(C)C)cc1
% of engagement ([1]; Selectivity number of off-targets 0.0, Selectivity number of targets 233.0, Source Knowledge https://www.sciencedirect.com/science/article/pii/S2451945619300674?via%3Dihub): 7.5%
% of engagement [1]: -9.4%

CNC(=O)Nc1ccc(-c2nc(N3CC4CCC(C3)O4)c3cnn(C4CCC5(CC4)OCCO5)c3n2)cc1
% of control [2]: 87%

O[C@H]1CC[C@H](Nc2ncc3nc(Nc4c(F)cc(F)cc4F)n([C@H]4CCOC4)c3n2)CC1
% of control [3]: 100%

CN(C)CCOc1ccc(-c2nc(-c3ccncc3)c(-c3ccc4c(c3)CC/C4=N\O)[nH]2)cc1
% of control [4]: 98%

CN(C)C/C=C/C(=O)Nc1ccc(C(=O)N2CCCC(Nc3ncc(Cl)c(-c4c[nH]c5ccccc45)n3)C2)cc1 (stereo unspecified)
% of control [5]: 99%
